The text below walks through data of patent publication US20250228851A1, “ALLOSTERIC INHIBITOR COMPOUNDS FOR OVERCOMING CANCER RESISTANCE” (priority 2021, published 2025).

pIC50: −log10 of the molar value.

Test [1] deals with Sup-B15 (p185-BCR-ABL). Nature of the test: XTT cell viability, Sup-B15 (WT-Sup-B15). Format: cell-based, human. On the procedure: • 1. Ba/F3 cells were obtained from the German Collection of Microorganisms and Cell Cultures (DSMZ, Braunschweig, Germany) and maintained in RPMI 1640 medium supplemented with 10% fetal calf serum (Invitrogen) containing 10 ng/ml of interleukin-3 (Cell Concepts, Umkirch, Germany). Ecotropic Phoenix cells and Rat-1 cells were cultured in Dulbecco's modified Eagle's medium supplemented with 10% fetal calf serum. GNF-2 (Sigma-Adrich, Steinheim, Germany) was dissolved in dimethyl sulfoxide and added at a final concentration of […]. Cell growth was assessed by dye exclusion using Trypan blue. Proliferation was assessed using the XTT proliferation kit (Roche, Mannheim, Germany), according to the manufacturer's instructions. • 2. Ba/F3: IL-3 dependent lymphatic murine pro B cell line. Ba/F3 cells expressing either p185-BCR-ABL1 (p185-BCR-ABL-Ba/F3) or p210-BCR-ABL (p210-BCR-ABL-Ba/F3). p185-BCR-ABL1 (activated kinases substitute for the IL-3 signaling and therefore render the cells IL3 independent. Ba/F3 cells expressing either p185-BCR-ABL (p185-Ba/F3) or p210-BCR-ABL (p210-Ba/F3). Ba/F3 cells obtained from the German Collection of Microorganisms and Cell Cultures (DSMZ, Braunschweig, Germany). • 3. Mutant transduced Ba/F3 cells (T315I-p185-BCR-ABL1 or T315I-p210-BCR-ABL1): Ba/F3 cells expressing either the mutated forms T315I-p185-BCR-ABL1 or T315I-p210-BCR-ABL1. • 4. WT-Sup-B15: A Ph+ ALL cell line harboring the p185-BCR-ABL. Sup-B15: established from the bone marrow of a child with acute lymphoblastic leukemia (B cell precursor ALL) in second relapse in 1984; described in the literature to carry the ALL-variant (m-BCR) of the BCR-ABL1 fusion gene (e1-a2) correct, because it results in the p185-BCR-ABL version. • 5. […] V617FJAK2 HEL: (Human erythroleukemia) is a growth factor independent erythroleukemic cell line established from the bone marrow of a patient with relapsed Hodgkin disease after autologous bone marrow transplantation (Martin P & Papayannopoulou T: Science 1982; 216:1233-1235). HEL cells display a block in differentiation at the level of common erythroid-megakaryocytic progenitor and have been commonly used as a model to study erythroid and megakaryocytic differentiation. • 7. Jurkat: an immortalized human T lymphocyte first derived from the peripheral blood of a child suffering from T cell leukemia. Jurkat cells are used to study acute T cell leukemia, T cell signaling, and the expression of various chemokine receptors susceptible to viral entry, particularly HIV.
FIG. 2: Effect of Compound 16 on leukemia cell lines (Jurkat, Sup-B15 and BV173). Cell viablility (CV) was determined following incubation of the 1 m cells/ml of each cell line with increasing concentration of the Compound 16 [empty vehicle (0.0 μM+IL3), 2.5, 5.0 and 10.0 μM]. CV was measured by the XTT method. The means±SD of triplicates from one representative experiment out of three performed are given.

Test [2] concerns KÖ (Ph+T315I-BCR-ABL). As to the kind of experiment: Proliferation by dye exclusion after three days, KÖ. Conditions: KÖ, 2.5, 5 and 10 μM. Format: cell-based, human. On the procedure:
FIG. 3. […] Cells were exposed to increasing concentration of 2.5, 5 and 10 μM of Compound 16. The negative control cell lines Ph− ALL HP was irresponsive to increasing concentration of Compound 16 (up to 10 μM). […] All four cell lines were plated in duplicates at the indicated concentrations, and proliferation was assessed after three days by dye exclusion of viable cells. […] The sensitivity of Ph+ cells to Compound 16 underlines the involvement of BCR-ABL in the antiproliferative mechanism. Death induction of BV173 cells is well taken as an indication of the ability of such group of compounds to overcome resistance that is originated in non-mutational grounds. However, the ability overcome the resistant T315I-BCR-ABL mutant, as shown in the dose-dependent manner of KÖ (circles), might be indicative for a non-ATP competitive mechanism of action.

With `COc1ccc(C(=O)N2CCN(c3cc(Nc4ccc(OC(F)(F)F)cc4)ncn3)CC2)cc1OC` [Compound 16], in test [1] (10 μM), the cells inhibited result is “around 69%”. Moreover, in test [1] (Sup-B15, XTT, estimated), the pIC50 was about 5.35. Moreover, the “antiproliferative response (in words)” value in test [1] (Sup-B15 / WT-Sup-B15, increasing concentration up to 10 μM) is given as “potently inhibited the proliferation”. In addition, the “response (in words)” value in test [2] is reported as “inhibited with variable degrees”.
